In patent US7638554B2, “Flavanoids as chemotherapeutic, chemopreventive, and antiangiogenic agents” (SRI International, priority 2002, dated 2009):
Where two headings read alike, the source gives them in different places.

Key:
[1] = test system: MMP-9; assay: Western blotting of cell-associated MMP-9 protein, MCF-10-CA1a cells; type: cell-based, human; details: 1, 3, or 5 μM, 48 h
Description: (§1) Western Blotting. Proteins were separated by gel electrophoresis using 4-12% pre-cast SDS-polyacrylamide gels (Invitrogen, Carlsbad, Calif.) and then electrophoretically transferred onto Hybond™-P membrane (Amersham Biosciences, Piscataway, N.J.). Blots were probed with specific antibodies (Santa Cruz Biotechnology, Inc). The ECL Plus Western Blotting Detection System of Amersham Biosciences (Piscataway, N.J.) and the procedure recommended by the manufacturer was used for the detection of antigens. Protein bands were quantified by analyzing the images obtained using an Alphaimager™ S-3400 (Alpha Innotech Corp., San Leandro, Calif.).
(§2) The effect of SR 13179 on cell-associated MMP-2 and MMP-9 protein levels was studied. MCF-10-CA1a cells were treated with SR 13179 at 1, 3, or 5 μM concentrations for 48 h. Untreated cells were used as control. Proteins were separated by SDS-Polyacrylamide gel electrophoresis and electrophoretically transformed onto Hybond™ P membrane (Amerhsam Biosciences). Blots were probed with specific antibodies (Santa Cruz Biotechnology Inc.).

[2] = test system: colon cancer cell line SW-620; assay: Growth inhibition, sulforhodamine-based protein determination, SW-620; type: cell-based; details: Homo sapiens, SW-620, 144 h; continuous exposure six days
Method: (§3) The novel compound SR 13179 was assayed for its ability to inhibit growth in several cancer cell lines. The cell lines studied included breast cancer cell line MCF-7 (ER+); prostate cancer cell lines LNCaP, PC3, and DU145; lung cancer cell line A427; ovarian cancer cell lines IGROV1, OVCAR-3, OVCAR-4, OVCAR-5, OVCAR-8, and SK-OV-3; and colon cancer cell lines COLO 205, HCC-2998, HCT-116, HCT-15, HT29, KM12, AND SW-620.
(§4) The growth assays for the breast cancer cell lines were conducted according to the method of Example 16. For the other cell lines, each assay was conducted with continuous exposure to the test compound at four log concentrations for six days, using a sulforhodamine-based protein determination to measure growth inhibition.

[3] = test system: TIMP-1; assay: TIMP-1 protein expression, MCF-10-CA1a cells; type: cell-based, human
Description: as §1
The effects of SR 13179 on the protein expression of TIMP-1, TIMP-2, and membrane-type 1 MMP (MT1-MMP) were studied. SR13179 induced the protein expression of TIMP-2 in a dose- and time-dependent manner. MCF-10-CA1a cells were treated with SR 13179 at 1, 3, or 5 μM concentrations for 48 h, or, alternatively, with […] SR 13179 for 8, 24, or 48 h. Cells were lysed and subjected to Western blotting.
The effect of SR13179 on the extracellular levels of TIMP-2 as well as MMP-2 was also investigated. Treatment of MCF-10CA1a cells with SR13179 at 5 μM concentration caused 5- to 8-fold increase in the secreted level of TIMP-2 and a 2-fold decrease in the extracellular level of MMP-2. […]

[4] = test system: MMP-2; assay: Western blotting of cell-associated MMP-2 protein, MCF-10-CA1a cells; type: cell-based, human; details: 1, 3, or 5 μM, 48 h
Description: as §1, §2

[5] = test system: colon cancer cell line HCT-116; assay: Growth inhibition, sulforhodamine-based protein determination, HCT-116; type: cell-based; details: Homo sapiens, HCT-116, 144 h; continuous exposure six days
Method: as §3, §4

[6] = test system: colon cancer cell line HT29; assay: Growth inhibition, sulforhodamine-based protein determination, HT29; type: cell-based; details: Homo sapiens, HT-29, 144 h; continuous exposure six days
Method: as §3, §4

[7] = test system: colon cancer cell line HCC-2998; assay: Growth inhibition, sulforhodamine-based protein determination, HCC-2998; type: cell-based; details: Homo sapiens, HCC 2998, 144 h; continuous exposure six days
Method: as §3, §4

[8] = test system: MCF-7 (ER+) breast cancer cell line; assay: Growth inhibition assay, MTT, MCF-7 breast cancer cells; type: cell-based, human; details: Homo sapiens
Method: Compounds of the invention were tested for their ability to inhibit growth in two breast cancer cell lines, MCF-7 (ER+) and MDA-MB-231 (ER−).
The growth inhibition assays were conducted using routine methods. Briefly, the cells were seeded in 24-well plates at a density of 2000 cells per well in 200 μL of […] growth medium. To each well was added 10 μL of DMSO containing the dissolved test compound; final DMSO concentration in each well was not more than 0.5%. Each test compound was assayed at concentrations of 0.4, 2, 10, and 50 μM. The plates were incubated for eight days, with the media and test solutions replaced every third day. On Day 8, the viable cells were measured by the MTT assay, as described in Mosmann et al. (1983), “Rapid Colorimetric Assay for Cellular Growth and Survival: Application to Proliferation and Cytotoxicity,” J. Immunol. Method. 65:55-63. The optical density at 575 nm of each test well was measured and compared to that for control wells, and the data used to calculate the percentage of growth inhibition at different concentrations. The IC50 value (the concentration of growth inhibitor that results in 50% growth inhibition of the cells in culture relative to control cells not exposed to any growth inhibitor) was determined by plotting dose-response curves.
The calculated IC50 values are set forth in Table 1, with the results representing the average of at least two experiments conducted for each compound at each of the four concentrations.

[9] = test system: MCF-7 human breast cancer xenografts; assay: MCF-7 human breast cancer xenografts in nude mice, i.p. administration; type: in vivo
Method: To evaluate the in vivo activity of novel compound SR 13179 against breast cancer, the compound was administered to female BALB/c nude mice that had been implanted with breast cancer cells. In this experiment, MCF-7 human breast cancer cells (2.5×10^6 cells) were implanted subcutaneously in both flanks of each mouse. Two days after cell inoculation, one estradiol pellet (10 μg/pellet) was implanted into each mouse by subcutaneous implantation. When tumor volumes reached 100 mm^3 (Day 0), SR 13179 was administered at a dose of 12.5 mg/kg, 25 mg/kg and 50 mg/kg intraperitoneally (i.p.) once a day, as a suspension in 0.5% hydroxypropyl cellulose. Body weights and tumor volumes were measured twice a week for 14 days. The tumor volume was expressed as % of initial tumor size which was designated as 100% on Day 0.

[10] = 12.5, 25 and 50 mg/kg i.p. once a day

SMILES: COc1cc(C2CC(O)c3ccc4ccccc4c3O2)cc(OC)c1OC (stereo not shown) [SR 13179, 2-(3,4,5-trimethoxyphenyl)-3,4-dihydro-2H-benzo[h]chromen-4-ol]
- cell-associated MMP-9 protein levels [1]: does not affect
- IC50 [2]: 281 nM
- TIMP-1 protein levels [3]: no significant effect
- cell-associated MMP-2 protein levels [4]: does not affect
- IC50 [5]: 310 nM
- IC50 [6]: 430 nM
- IC50 [7]: 278 nM
- IC50 ([8]; MCF7, 192 h, MTT assay, eight days, average of at least two experiments, read-out: GROWTH INHIBITION (IC50) MCF-7 (ER+)): 1410 nM
- IC50 ([8]; MCF7, Table 2, method of Example 16, read-out: IC50, growth inhibition, MCF-7 (ER+)): 1140 nM
- tumor growth ([9]; 12.5 mg/kg/day i.p., 14 days): complete suppression of tumor growth
- tumor size compared to the size at Day 0 ([9]; 50 mg/kg/day i.p., 14 days): slight regression in tumor size
- body weights of the treated mice [9, 10]: unaffected
- overt toxicity [9, 10]: no overt toxicity was observed
